# Earlier results in US12329853B2, “Compositions and methods for treating ocular diseases” (OCULAR THERAPEUTIX, INC., priority 2020, dated 2025).
# Legend:
# [1] = organic solvents typically employed for fabrication of microspheres using solvent evaporation
# [2] = molecular target: FP prostanoid receptor (Homo sapiens, UniProt P43088)
# Chain of FP prostanoid receptor (P43088 whole entry): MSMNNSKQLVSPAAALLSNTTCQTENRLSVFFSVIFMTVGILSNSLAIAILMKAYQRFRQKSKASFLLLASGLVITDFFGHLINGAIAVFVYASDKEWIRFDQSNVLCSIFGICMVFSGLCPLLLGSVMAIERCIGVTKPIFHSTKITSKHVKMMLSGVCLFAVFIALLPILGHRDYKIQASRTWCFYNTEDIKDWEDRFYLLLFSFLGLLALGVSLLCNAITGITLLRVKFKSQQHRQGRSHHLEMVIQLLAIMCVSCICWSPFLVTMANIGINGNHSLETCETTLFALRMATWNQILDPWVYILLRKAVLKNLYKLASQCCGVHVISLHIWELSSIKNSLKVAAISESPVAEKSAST
SMILES,Solubility in organic solvents [1],Selectivity for the FP prostanoid receptor compared to latanoprost [2],Potency compared to latanoprost ([2]; FP prostanoid receptor)
CC(C)OC(=O)CCC/C=C\C[C@@H]1[C@@H](CC[C@@H](O)CCc2ccccc2)[C@H](O)C[C@@H]1O [Latanoprost],readily soluble,–,–
O=C(O)CCC/C=C\C[C@@H]1[C@@H](/C=C/[C@@H](O)COc2cccc(C(F)(F)F)c2)[C@H](O)C[C@@H]1O [free acid of travoprost],–,greater selectivity,higher potency
